The values below come from publication PMC11928584, “H105A peptide eye drops promote photoreceptor survival in murine and human models of retinal degeneration” (Communications Medicine, 2025).

Where a SMILES comes first, the peptide text is derived from it.

Common to all, as to format: in vivo, mouse
Data set [1] has as its system retinal function of rd10 mice. Put plainly: Electroretinogram (scotopic a- and b-wave), rd10 mice. Particulars: daily eye drops of labeled peptide P15-P20, ERG P21, n=3. The procedure:
Electroretinogram (ERG) for rd10 and rd10/Serpinf1^-/- mice were dark-adapted overnight and recorded in both eyes of each animal using an Espion E2 system with ColorDome (Diagnosys LLC) with a heated surface. Briefly, pupils were dilated with 1% tropicamide (Akorn, NDC: 17478-101-12) for 10 min and mice were anesthetized with intraperitoneal injection of Zetamine™ (Ketamine hydrochloride injection, USP; VetOne, NDC 13985-584-10) at 92.5 mg/kg, and AnaSed® (xylazine injection, Akorn Pharmaceuticals, NDC 59399-110-20) at 5.5 mg/kg. Mice were placed on the heated surface and electrodes were placed in the mouth and a subdermal platinum needle electrode was placed in the back of the mouse to serve as ground. Responses were elicited with increasing light impulses with intensity from 0.0001 to 10 cd-seconds per meter squared (cd.s/m^2). Amplitudes for a-wave were measured from stimulus to the trough of the a-wave and b-wave amplitudes were measured from a-wave to b-wave trough or peak. The values from the a and b waves for both eyes were exported to Microsoft Excel to obtained amplitude values for each mouse.
Fig. 5 Effect of daily eyedrops of PEDF peptides on ERG a-wave and b-wave retinal function. a Illustration of the experimental timeline of peptide application. RE and LE refer to the right and left eyes, respectively. Representative ERG waveforms for rd10 (b) and rd10/Serpinf1^-/- (c) mice at P21 in response to a light flash (1 cd.s/m²). Amplitude (y-axis) is plotted against time in milliseconds (ms, x-axis). Treatments are indicated to the right of each plot and are color coded, with control wild type C57BL/6 J mice without peptide treatment shown in blue. A-wave and b-wave are indicated by arrows. Photoreceptor a-wave amplitudes. Averages of photoreceptor a-wave amplitudes for rd10 (d) and rd10/Serpinf1^-/- (e) mice as a function of light intensity (cd/s.m², x-axis). Responses of animals treated with 17-mer are shown in green, H105A in black, and vehicle (HBSS) in red. Wildtype responses are shown in blue. Bipolar cell b-wave amplitudes. Averages of bipolar cell b-wave amplitudes for rd10 (f) and rd10/Serpinf1^-/- (g) mice as a function of light intensity (cd/s.m², x-axis), with treatments as indicated in panels. The number of mice evaluated for the data shown in Panels d-g was five (n = 5) for each rd10, rd10/Serpinf1^-/- and wild type. Each data point represents the average ± SD of each genotype, analyzed by ANOVA with Dunnett’s multiple comparisons. Statistical significance between H105A and vehicle is indicated by ##p ≤ 0.01, ###p ≤ 0.001, ####p ≤ 0.0001, and between H105A and 17-mer by **p ≤ 0.01, ***p ≤ 0.001, ****p ≤ 0.0001.

Data set [2] concerns photoreceptors of rd10 mice. Put plainly: PSVue-550 fluorescence fundoscopy of photoreceptor cell death (PS externalization). Conditions: daily eye drops 5 µl of 1 mg/ml from P15, PSVue-550 fundoscopy P21. The source says: (§1) Fluorescence fundoscopy with a cell death probe was chosen as a simple method for monitoring photoreceptor cell death in alive animals. A fluorescent probe, bis (zinc^2+-dipicolylamine)-550, (PSVue®-550) (Molecular Targeting Technologies Inc, cat. P-1005) was reconstituted in Hanks’ Balanced Salt Solution (HBSS, Quality Biological, cat. 114-062-101) according to the manufacturer’s instructions[28],[36]. This probe is suitable for in vivo use to specifically and transiently label dying photoreceptors, such as in living rats with retinal degeneration the Royal College of Surgeons rat model, in a non-invasive and non-toxic method without the need of intraocular injection. Briefly, a stock of 1 mM solution of PSVue®-550 was stored in the dark at 4 °C and used within 14 days directly as eye drop. After 3-4 h of light onset each mouse received eye drops of 5–10 μl of 1 mM PSVue®-550 in the left eye and HBSS in the right eye as control. The eye drop volume was chosen such that the eye cavity was filled without spillage outside the eye, and it was modified depending on eye size. […] To obtain in vivo retinal images of fundi, at 24 h after the probe was administered, the mice were anesthetized, and pupils were dilated with 1% tropicamide for 5 min and kept hydrated with GenTeal. Fluorescence was imaged using a retinal imaging microscope (Micron III, Phoenix Research Labs) using an FF02- 475/50 nm excitation filter (Semrock, Inc.). We observed some variability in optic nerve (ON) fluorescence that could not be readily explained, so the optic nerve was excluded from analyses in all samples.
(§2) To determine the natural history of photoreceptor death of rd10 and rd10/Serpinf1^-/- mice, we assessed photoreceptor cell death in live mice using the fluorescent probe termed PSVue® 550 to monitor PS externalization by fluorescence fundoscopy (Supplementary Fig. 2). Given the reports about the retinas of rd10 mice starting to show histological changes at P16, and with a peak in the number of TUNEL+ nuclei in the ONL at P17-18[13], we monitored PS externalization in photoreceptors of these mice undergoing degeneration before death onset. Eye drops of 1 mM PSVue® 550 solution in HBSS were administered to left eyes and HBSS (vehicle) to their contralateral right eyes of each mouse at ages P16, P20, P22 or P24. PS externalization was determined by fluorescence fundoscopy 24 h post-administration. PSVue labeling of phosphatidylserine (PS) externalization associated with photoreceptor cell death in the rd10 retina (Supplementary Figs. 2, 3).
(§3) Fig. 2 Effect of PEDF peptide eye drops on protection against photoreceptor cell death in rd10 and rd10/Serpinf1^-/- mice. a Illustration of the experimental timeline of peptide application. Eye drops containing 5 µl of 17-mer, H105A, or R99A peptides in HBSS were administered daily to eyes of rd10 and rd10/Serpinf1^-/- mice from P15 to P20. Vehicle (HBSS) was applied in contralateral eyes. At P20, PSVue® was applied via eye drops, and fluorescence fundoscopy was conducted at P21 to assess photoreceptor cell death. RE and LE refer to the right and left eyes, respectively. b Fluorescence fundoscopy micrographs. Representative fluorescence fundoscopy images of retinas from mice treated as in Panel a with eyedrops of 1 mg/ml of each peptide. Quantification of fluorescence intensity was performed using ImageJ, with average intensity values corrected for background fluorescence from eyes that had not received PSVue or peptides. Each line represents data from one animal comparing treated and contralateral eyes, with five eyes (n = 5) per condition. Statistical significance was determined by paired t-test (****p ≤ 0.0001, and ns > 0.05). Scale bar = 0.5 mm. c Dose response of peptide eye drops. Representative fluorescence fundoscopy micrographs showing retinas treated with varying concentrations of 17-mer and H105A peptides (0.0 mg/ml to 1.0 mg/ml) in rd10 and rd10/Serpinf1^-/- mice. […]

Data set [3] relates to photoreceptors of rd10/Serpinf1-/- mice. The description is as above. Particulars: daily eye drops 5 µl of 1 mg/ml from P15, PSVue-550 fundoscopy P21.
Text: as §1, §2, §3

On to “AlexaFl-QRTESIIARALYYDLIS-COOH [AlexaFl-488-H105A, H105A peptide conjugated to Alexa Fluor 488 dye]”, for which the “ERG a-wave and b-wave retinal function” value in data set [1] was “improved retinal function”. Take `CC[C@H](C)[C@H](NC(=O)[C@H](CC(=O)O)NC(=O)[C@@H]1CCCN1C(=O)[C@H](CO)NC(=O)[C@H](CO)NC(=O)[C@@H](NC(=O)[C@H](CC(C)C)NC(=O)[C@H](CC(=O)O)NC(=O)[C@H](Cc1ccc(O)cc1)NC(=O)[C@H](Cc1ccc(O)cc1)NC(=O)[C@H](CC(C)C)NC(=O)[C@H](C)NC(=O)[C@H](CCCNC(=N)N)NC(=O)[C@H](Cc1c[nH]cn1)NC(=O)[C@@H](NC(=O)[C@@H](NC(=O)[C@H](CO)NC(=O)[C@H](CCC(=O)O)NC(=O)[C@@H](NC(=O)[C@H](CCCNC(=N)N)NC(=O)[C@H](CCC(N)=O)NC(=O)[C@H](CCC(=O)O)NC(=O)[C@H](C)NC(=O)CNC(=O)[C@H](CC(C)C)NC(=O)[C@@H](N)CO)[C@@H](C)O)[C@@H](C)CC)[C@@H](C)CC)[C@@H](C)CC)C(=O)N[C@@H](Cc1c[nH]cn1)C(=O)NCC(=O)N[C@H](C(=O)O)[C@@H](C)O` [29-mer] (H-SLGAEQRTESIIHRALYYDLISSPDIHGT-OH): the “PS externalization / photoreceptor cell death vs vehicle” value in data set [2] and in data set [3] was “no reduction in photoreceptor cell death” each time. Turning to `CC[C@H](C)[C@H](NC(=O)[C@H](CC(=O)O)NC(=O)[C@@H]1CCCN1C(=O)[C@H](CO)NC(=O)[C@H](CO)NC(=O)[C@@H](NC(=O)[C@H](CC(C)C)NC(=O)[C@H](CC(=O)O)NC(=O)[C@H](Cc1ccc(O)cc1)NC(=O)[C@H](Cc1ccc(O)cc1)NC(=O)[C@H](CC(C)C)NC(=O)[C@H](C)NC(=O)[C@H](CCCNC(=N)N)NC(=O)[C@H](C)NC(=O)[C@@H](NC(=O)[C@@H](NC(=O)[C@H](CO)NC(=O)[C@H](CCC(=O)O)NC(=O)[C@@H](NC(=O)[C@H](CCCNC(=N)N)NC(=O)[C@H](CCC(N)=O)NC(=O)[C@H](CCC(=O)O)NC(=O)[C@H](C)NC(=O)CNC(=O)[C@H](CC(C)C)NC(=O)[C@@H](N)CO)[C@@H](C)O)[C@@H](C)CC)[C@@H](C)CC)[C@@H](C)CC)C(=O)N[C@@H](Cc1c[nH]cn1)C(=O)NCC(=O)N[C@H](C(=O)O)[C@@H](C)O` [29-mer[H105A]] (H-SLGAEQRTESIIARALYYDLISSPDIHGT-OH), the “PS externalization / photoreceptor cell death vs vehicle” value in data set [2] and in data set [3] was “no reduction in photoreceptor cell death” in each case.

As for “AlexaFl-QRTESIIHRALYYDLIS-COOH [AlexaFl-488-17-mer, 17-mer peptide conjugated to Alexa Fluor 488 dye]”, the “ERG a-wave and b-wave retinal function” value in data set [1] is listed as “improved retinal function”. On to “AlexaFl-QATESIIHRALYYDLIS-COOH [AlexaFl-488-R99A, R99A peptide conjugated to Alexa Fluor 488 dye]”, for which the “ERG a-wave and b-wave retinal function” value in data set [1] is listed as “showed no improvement”.
